US9598423B2 (BRISTOL-MYERS SQUIBB COMPANY, priority 2013, dated 2017)

How the values were obtained:
[1] = biological target: CK1ε (Homo sapiens (Human), UniProt P49674); test: CK1ε kinase assay (Caliper LABCHIP electrophoretic separation of fluoresceinated peptide substrate and product); type: biochemical; details: 200 pM CK1ε, 50 μM ATP, 1.5 μM peptide substrate, 22 hours at room temperature; read-out: CK1ε (IC50)
Method in brief: (§1)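 IC50 values were obtained by non-linear regression from eleven-concentration titrations. The kinase reactions were incubated for 22 hours at room temperature before termination with 35 mM EDTA.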

[2] = biological target: CK1δ (Homo sapiens (Human), UniProt P48730); test: CK1δ kinase assay (Caliper LABCHIP electrophoretic separation of fluoresceinated peptide substrate and product); type: biochemical; details: 200 pM CK1δ, 50 μM ATP, 1.5 μM peptide substrate, 22 hours at room temperature; read-out: CK1δ (IC50)
Sequence of CK1δ (P48730 whole entry): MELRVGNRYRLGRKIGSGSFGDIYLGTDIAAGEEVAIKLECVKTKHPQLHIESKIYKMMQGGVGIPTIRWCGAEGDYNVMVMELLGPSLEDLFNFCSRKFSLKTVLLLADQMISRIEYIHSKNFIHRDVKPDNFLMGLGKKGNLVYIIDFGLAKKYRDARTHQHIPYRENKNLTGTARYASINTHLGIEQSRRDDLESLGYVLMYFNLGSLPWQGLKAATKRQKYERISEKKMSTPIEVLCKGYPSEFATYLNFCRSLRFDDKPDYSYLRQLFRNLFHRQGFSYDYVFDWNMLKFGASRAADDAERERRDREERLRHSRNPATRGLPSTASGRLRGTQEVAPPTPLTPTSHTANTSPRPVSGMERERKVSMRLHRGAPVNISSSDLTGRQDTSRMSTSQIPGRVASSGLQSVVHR
Method in brief: as §1

Sequence of CK1ε (P49674 whole entry): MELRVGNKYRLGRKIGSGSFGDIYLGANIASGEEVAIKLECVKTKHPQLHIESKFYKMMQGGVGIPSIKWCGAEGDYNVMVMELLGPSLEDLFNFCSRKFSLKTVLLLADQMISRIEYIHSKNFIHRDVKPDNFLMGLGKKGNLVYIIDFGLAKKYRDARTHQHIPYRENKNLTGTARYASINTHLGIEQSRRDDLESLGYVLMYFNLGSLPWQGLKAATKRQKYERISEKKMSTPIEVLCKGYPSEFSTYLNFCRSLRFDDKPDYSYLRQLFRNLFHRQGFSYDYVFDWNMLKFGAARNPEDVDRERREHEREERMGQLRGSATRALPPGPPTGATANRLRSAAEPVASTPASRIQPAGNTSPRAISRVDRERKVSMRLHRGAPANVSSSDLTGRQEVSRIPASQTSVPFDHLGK

IC50 [1]	IC50 [2]	Compound
10 to 100 nM	10 to 100 nM	N#Cc1ccc(NC(=O)N2Cc3c(C(N)=O)c(-c4ccc(F)c(Cl)c4)nn3C(C(=O)NC3CCOCC3)C2)cc1 (single isomer, unassigned) [Compound A29, 2-(3-Chloro-4-fluorophenyl)-N^5-(4-cyanophenyl)-N^7-(tetrahydro-2H-pyran-4-yl)-6,7-dihydropyrazolo[1,5-a]pyrazine-3,5,7(4H)-tricarboxamide]
0.01 to 10 nM	0.01 to 10 nM	NC(=O)c1c(-c2ccc(F)c(Cl)c2)nn2c1CN(C(=O)Nc1cccc(F)c1)CC2 [Compound 186, 2-(3-Chloro-4-fluorophenyl)-N^5-(3-fluorophenyl)-6,7-dihydropyrazolo[1,5-a] pyrazine-3,5(4H)-dicarboxamide]
10 to 100 nM	0.01 to 10 nM	NC(=O)c1c(-c2cccc(F)c2)nn2c1CN(C(=O)NC1CCN(CCC(F)(F)F)CC1)CC2 [Compound 103, 2-(3-Fluorophenyl)-N^5-(1-(3,3,3-trifluoropropyl)piperidin-4-yl)-6,7-dihydropyrazolo[1,5-a]pyrazine-3,5(4H)-dicarboxamide]
0.01 to 10 nM	0.01 to 10 nM	NC(=O)c1c(-c2ccc(Cl)c(Cl)c2)nn2c1CN(C(=O)Nc1cc(Cl)cc(Cl)c1)CC2 [Compound 206]
0.01 to 10 nM	0.01 to 10 nM	COc1ccc(NC(=O)N2CCn3nc(-c4ccc(F)c(Cl)c4)c(C(N)=O)c3C2)cc1C(F)(F)F [Compound 189, 2-(3-Chloro-4-fluorophenyl)-N^5-(4-methoxy-3-(trifluoromethyl)phenyl)-6,7-dihydropyrazolo[1,5-a]pyrazine-3,5(4H)-dicarboxamide]
0.01 to 10 nM	0.01 to 10 nM	Cc1nn(C)c2c(Cl)cc(-c3nn4c(c3C(N)=O)CN(C(=O)Nc3ccc(C#N)cc3)CC4)cc12 [Compound 322, 2-(7-Chloro-1,3-dimethyl-1H-indazol-5-yl)-N-(4-cyanophenyl)-6,7-dihydropyrazolo[1,5-a]pyrazine-3,5(4H)-dicarboxamide]
0.01 to 10 nM	0.01 to 10 nM	Cc1ccc(NC(=O)N2CCn3nc(-c4ccc(F)c(Cl)c4)c(C(N)=O)c3C2)cc1C [Compound 175, 2-(3-Chloro-4-fluorophenyl)-N^5-(3,4-dimethylphenyl)-6,7-dihydropyrazolo[1,5-a] pyrazine-3,5(4H)-dicarboxamide]
0.01 to 10 nM	0.01 to 10 nM	Cc1ccc(-c2nn3c(c2C(N)=O)CN(C(=O)Nc2ccc4ncsc4c2)CC3)cc1Cl [Compound 254, N^5-(Benzo[d]thiazol-6-yl)-2-(3-chloro-4-methylphenyl)-6,7-dihydropyrazolo[1,5-a] pyrazine-3,5(4H)-dicarboxamide]
0.01 to 10 nM	0.01 to 10 nM	Cc1ccc(-c2nn3c(c2C(N)=O)CN(C(=O)Nc2ccc(C#N)c(F)c2)CC3)cc1Cl [Compound 255, 2-(3-Chloro-4-methylphenyl)-N^5-(4-cyano-3-fluorophenyl)-6,7-dihydropyrazolo [1,5-a]pyrazine-3,5(4H)-dicarboxamide]
0.01 to 10 nM	0.01 to 10 nM	Cn1ncc2cc(-c3nn4c(c3C(N)=O)CN(C(=O)Nc3ccc(C#N)cc3)CC4)cc(Cl)c21 [Compound 318, 2-(7-Chloro-1-methyl-1H-indazol-5-yl)-N^5-(4-cyanophenyl)-6,7-dihydropyrazolo[1,5-a]pyrazine-3,5(4H)-dicarboxamide]
0.01 to 10 nM	0.01 to 10 nM	N#Cc1ccc(NC(=O)N2CCn3nc(-c4cccc(Cl)c4)c(C(N)=O)c3C2)cc1OC(F)(F)F [Compound A39, 2-(3-Chlorophenyl)-N^5-(4-cyano-3-(trifluoromethoxy)phenyl)-6,7-dihydropyrazolo[1,5-a]pyrazine-3,5(4H)-dicarboxamide]
0.01 to 10 nM	0.01 to 10 nM	Cc1ccc(-c2nn3c(c2C(N)=O)CN(C(=O)Nc2ccc(C#N)cc2)CC3)cc1C [Compound 282, N^5-(4-Cyanophenyl)-2-(3,4-dimethylphenyl)-6,7-dihydropyrazolo[1,5-a] pyrazine-3,5(4H)-dicarboxamide]
0.01 to 10 nM	0.01 to 10 nM	N#Cc1ccc(NC(=O)N2CCn3nc(-c4cnc(Cl)c(Cl)c4)c(C(N)=O)c3C2)cc1 [Compound 297, N^5-(4-Cyanophenyl)-2-(5,6-dichloropyridin-3-yl)-6,7-dihydropyrazolo[1,5-a]pyrazine-3,5(4H)-dicarboxamide]
0.01 to 10 nM	0.01 to 10 nM	COc1cccc(NC(=O)N2CCn3nc(-c4cccc(F)c4)c(C(N)=O)c3C2)c1 [Compound 73, 2-(3-Fluorophenyl)-N^5-(3-methoxyphenyl)-6,7-dihydropyrazolo[1,5-a]pyrazine-3,5(4H)-dicarboxamide]
0.01 to 10 nM	0.01 to 10 nM	Cc1cc(NC(=O)N2CCn3nc(-c4ccc(F)c(Cl)c4)c(C(N)=O)c3C2)ccc1C#N [Compound A48, 2-(3-Chloro-4-fluorophenyl)-N^5-(4-cyano-3-methylphenyl)-6,7-dihydropyrazolo[1,5-a]pyrazine-3,5(4H)-dicarboxamide]
100 to 2000 nM	100 to 2000 nM	CS(=O)(=O)c1cccc(-c2nn3c(c2C(N)=O)CN(C(=O)Nc2ccc(C#N)cc2)CC3)c1 [Compound 286, N^5-(4-Cyanophenyl)-2-(3-(methylsulfonyl)phenyl)-6,7-dihydropyrazolo[1,5-a] pyrazine-3,5(4H)-dicarboxamide]
0.01 to 10 nM	0.01 to 10 nM	Cc1cc(-c2nn3c(c2C(N)=O)CN(C(=O)Nc2ccc4c(c2)OC(F)(F)O4)CC3)ccc1F [Compound 247, N^5-(2,2-Difluorobenzo [d][1,3]dioxol-5-yl)-2-(4-fluoro-3-methylphenyl)-6,7-dihydropyrazolo[1,5-a]pyrazine-3,5(4H)-dicarboxamide]
0.01 to 10 nM	0.01 to 10 nM	Cc1ccc(-c2nn3c(c2C(N)=O)CN(C(=O)Nc2ccc(C#N)c(Cl)c2)CC3)cc1Cl [Compound 256, N^5-(3-Chloro-4-cyanophenyl)-2-(3-chloro-4-methylphenyl)-6,7-dihydropyrazolo[1,5-a] pyrazine-3,5(4H)-dicarboxamide]
0.01 to 10 nM	0.01 to 10 nM	NC(=O)c1c(-c2cccc(F)c2)nn2c1CN(C(=O)Nc1ccc3ccccc3c1)CC2 [Compound 59, 2-(3-Fluorophenyl)-N^5-(naphthalen-2-yl)-6,7-dihydropyrazolo[1,5-a]pyrazine-3,5(4H)-dicarboxamide]
0.01 to 10 nM	0.01 to 10 nM	CC12CC3CC(C)(C1)CC(NC(=O)N1CCn4nc(-c5cccc(F)c5)c(C(N)=O)c4C1)(C3)C2 [Compound 81, N^5-(3,5-Dimethyladamantan-1-yl)-2-(3-fluorophenyl)-6,7-dihydropyrazolo[1,5-a]pyrazine-3,5(4H)-dicarboxamide]
0.01 to 10 nM	0.01 to 10 nM	N-(tert-Butyl)-2-(3,4-dichlorophenyl)-7-methyl-6,7-dihydropyrazolo[1,5-a]pyrazine-3,5(4H)-dicarboxamide [Compound A32]
0.01 to 10 nM	10 to 100 nM	N#Cc1ccc(NC(=O)N2CCn3nc(-c4cc(F)c5cn[nH]c5c4)c(C(N)=O)c3C2)cc1Cl [Compound 323, N^5-(3-Chloro-4-cyanophenyl)-2-(4-fluoro-1H-indazol-6-yl)-6,7-dihydropyrazolo[1,5-a]pyrazine-3,5(4H)-dicarboxamide]
0.01 to 10 nM	0.01 to 10 nM	NC(=O)c1c(-c2cc(Cl)c(F)c(Cl)c2)nn2c1CN(C(=O)Nc1ccc(C(F)(F)F)cc1)CC2 [Compound 262, 2-(3,5-Dichloro-4-fluorophenyl)-N^5-(4-(trifluoromethyl)phenyl)-6,7-dihydropyrazolo[1,5-a]pyrazine-3,5(4H)-dicarboxamide]
0.01 to 10 nM	0.01 to 10 nM	N#Cc1ccc(NC(=O)N2CCn3nc(-c4cc(Cl)c(F)c(Cl)c4)c(C(N)=O)c3C2)cc1 [Compound 259, N^5-(4-Cyanophenyl)-2-(3,5-dichloro-4-fluorophenyl)-6,7-dihydropyrazolo[1,5-a]pyrazine-3,5(4H)-dicarboxamide]
0.01 to 10 nM	0.01 to 10 nM	NC(=O)c1c(-c2cccc(F)c2)nn2c1CN(C(=O)Nc1ccc(F)c(Cl)c1)CC2 [Compound 60, N^5-(3-Chloro-4-fluorophenyl)-2-(3-fluorophenyl)-6,7-dihydropyrazolo[1,5-a]pyrazine-3,5(4H)-dicarboxamide]
0.01 to 10 nM	0.01 to 10 nM	NC(=O)c1c(-c2cccc(F)c2)nn2c1CN(C(=O)NCc1ccc(Cl)cc1Cl)CC2 [Compound 45, N^5-(2,4-Dichlorobenzyl)-2-(3-fluorophenyl)-6,7-dihydropyrazolo[1,5-a]pyrazine-3,5(4H)-dicarboxamide]
0.01 to 10 nM	0.01 to 10 nM	COc1cc(Cl)cc(-c2nn3c(c2C(N)=O)CN(C(=O)NC(C)(C)C)CC3)c1 [Compound 152, N^5-(tert-Butyl)-2-(3-chloro-5-methoxyphenyl)-6,7-dihydropyrazolo[1,5-a]pyrazine-3,5(4H)-dicarboxamide]
0.01 to 10 nM	0.01 to 10 nM	NC(=O)c1c(-c2cccc(Cl)c2)nn2c1CN(C(=O)Nc1cc(F)cc(F)c1)CC2 [Compound 169, 2-(3-Chlorophenyl)-N^5-(3,5-difluorophenyl)-6,7-dihydropyrazolo[1,5-a] pyrazine-3,5(4H)-dicarboxamide]
0.01 to 10 nM	0.01 to 10 nM	COc1cccc(-c2nn3c(c2C(N)=O)CN(C(=O)Nc2ccc(Cl)c(Cl)c2)CC3)c1 [Compound 303, N^5-(3,4-Dichlorophenyl)-2-(3-methoxyphenyl)-6,7-dihydropyrazolo[1,5-a] pyrazine-3,5(4H)-dicarboxamide]

Compound	IC50 [1]	IC50 [2]
Cc1cc(F)cc(-c2nn3c(c2C(N)=O)CN(C(=O)Nc2ccc(C#N)c(Cl)c2)CC3)c1 [Compound 230, N^5-(3-Chloro-4-cyanophenyl)-2-(3-fluoro-5-methylphenyl)-6,7-dihydropyrazolo[1,5-a] pyrazine-3,5(4H)-dicarboxamide]	0.01 to 10 nM	0.01 to 10 nM
